One assay deals with ROCK2 (Homo sapiens (Human), UniProt O75116). The assay is described as follows: ROCK assay (LABCHIP peptide phosphorylation), ROCK2. Type of assay: biochemical. The conditions noted are these: 5 μM ATP, 1.5 μM peptide substrate.
For another assay, the target named is ROCK1 (Homo sapiens (Human), UniProt Q13464). Kind of assay: ROCK assay (LABCHIP peptide phosphorylation), ROCK1. The class given is biochemical. Conditions: 5 μM ATP, 1.5 μM peptide substrate; read-out: ROCK1 IC50.
Chain of ROCK1 (Q13464 whole entry, species assumed): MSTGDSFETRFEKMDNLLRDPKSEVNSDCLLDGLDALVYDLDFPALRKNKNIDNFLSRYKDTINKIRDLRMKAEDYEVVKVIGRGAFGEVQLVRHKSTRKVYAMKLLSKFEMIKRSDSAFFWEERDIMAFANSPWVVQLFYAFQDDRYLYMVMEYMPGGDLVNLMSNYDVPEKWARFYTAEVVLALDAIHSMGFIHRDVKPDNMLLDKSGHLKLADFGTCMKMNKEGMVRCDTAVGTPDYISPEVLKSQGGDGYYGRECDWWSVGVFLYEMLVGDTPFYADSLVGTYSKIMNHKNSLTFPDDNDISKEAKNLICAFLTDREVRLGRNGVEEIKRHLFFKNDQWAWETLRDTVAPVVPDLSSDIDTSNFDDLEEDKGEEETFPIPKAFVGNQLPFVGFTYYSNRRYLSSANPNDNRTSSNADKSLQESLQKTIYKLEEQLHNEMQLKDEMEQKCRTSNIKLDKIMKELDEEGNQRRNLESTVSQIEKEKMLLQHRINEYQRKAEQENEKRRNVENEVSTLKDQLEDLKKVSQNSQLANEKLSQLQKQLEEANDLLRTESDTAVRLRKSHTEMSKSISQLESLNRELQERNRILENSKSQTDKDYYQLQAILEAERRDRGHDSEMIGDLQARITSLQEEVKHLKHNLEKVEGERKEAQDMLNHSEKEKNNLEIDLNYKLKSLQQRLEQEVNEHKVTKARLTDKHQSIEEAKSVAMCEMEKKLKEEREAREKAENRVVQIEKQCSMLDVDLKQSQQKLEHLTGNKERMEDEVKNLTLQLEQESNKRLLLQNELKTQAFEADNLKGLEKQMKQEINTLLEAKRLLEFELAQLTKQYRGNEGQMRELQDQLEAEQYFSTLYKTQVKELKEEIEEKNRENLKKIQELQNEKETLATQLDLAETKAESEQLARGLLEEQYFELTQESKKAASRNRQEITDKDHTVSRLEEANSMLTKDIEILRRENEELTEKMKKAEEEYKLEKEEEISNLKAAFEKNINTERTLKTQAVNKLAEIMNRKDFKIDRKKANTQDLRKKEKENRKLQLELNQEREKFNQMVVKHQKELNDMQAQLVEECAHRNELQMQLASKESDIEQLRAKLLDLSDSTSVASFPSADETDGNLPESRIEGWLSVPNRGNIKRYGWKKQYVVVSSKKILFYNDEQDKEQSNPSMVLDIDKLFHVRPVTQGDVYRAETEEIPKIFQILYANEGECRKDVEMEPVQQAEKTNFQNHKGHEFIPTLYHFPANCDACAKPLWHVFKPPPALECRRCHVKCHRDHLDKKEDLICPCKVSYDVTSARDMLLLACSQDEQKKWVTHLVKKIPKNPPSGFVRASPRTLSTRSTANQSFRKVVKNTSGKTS

Chain of ROCK2 (O75116 whole entry, species assumed): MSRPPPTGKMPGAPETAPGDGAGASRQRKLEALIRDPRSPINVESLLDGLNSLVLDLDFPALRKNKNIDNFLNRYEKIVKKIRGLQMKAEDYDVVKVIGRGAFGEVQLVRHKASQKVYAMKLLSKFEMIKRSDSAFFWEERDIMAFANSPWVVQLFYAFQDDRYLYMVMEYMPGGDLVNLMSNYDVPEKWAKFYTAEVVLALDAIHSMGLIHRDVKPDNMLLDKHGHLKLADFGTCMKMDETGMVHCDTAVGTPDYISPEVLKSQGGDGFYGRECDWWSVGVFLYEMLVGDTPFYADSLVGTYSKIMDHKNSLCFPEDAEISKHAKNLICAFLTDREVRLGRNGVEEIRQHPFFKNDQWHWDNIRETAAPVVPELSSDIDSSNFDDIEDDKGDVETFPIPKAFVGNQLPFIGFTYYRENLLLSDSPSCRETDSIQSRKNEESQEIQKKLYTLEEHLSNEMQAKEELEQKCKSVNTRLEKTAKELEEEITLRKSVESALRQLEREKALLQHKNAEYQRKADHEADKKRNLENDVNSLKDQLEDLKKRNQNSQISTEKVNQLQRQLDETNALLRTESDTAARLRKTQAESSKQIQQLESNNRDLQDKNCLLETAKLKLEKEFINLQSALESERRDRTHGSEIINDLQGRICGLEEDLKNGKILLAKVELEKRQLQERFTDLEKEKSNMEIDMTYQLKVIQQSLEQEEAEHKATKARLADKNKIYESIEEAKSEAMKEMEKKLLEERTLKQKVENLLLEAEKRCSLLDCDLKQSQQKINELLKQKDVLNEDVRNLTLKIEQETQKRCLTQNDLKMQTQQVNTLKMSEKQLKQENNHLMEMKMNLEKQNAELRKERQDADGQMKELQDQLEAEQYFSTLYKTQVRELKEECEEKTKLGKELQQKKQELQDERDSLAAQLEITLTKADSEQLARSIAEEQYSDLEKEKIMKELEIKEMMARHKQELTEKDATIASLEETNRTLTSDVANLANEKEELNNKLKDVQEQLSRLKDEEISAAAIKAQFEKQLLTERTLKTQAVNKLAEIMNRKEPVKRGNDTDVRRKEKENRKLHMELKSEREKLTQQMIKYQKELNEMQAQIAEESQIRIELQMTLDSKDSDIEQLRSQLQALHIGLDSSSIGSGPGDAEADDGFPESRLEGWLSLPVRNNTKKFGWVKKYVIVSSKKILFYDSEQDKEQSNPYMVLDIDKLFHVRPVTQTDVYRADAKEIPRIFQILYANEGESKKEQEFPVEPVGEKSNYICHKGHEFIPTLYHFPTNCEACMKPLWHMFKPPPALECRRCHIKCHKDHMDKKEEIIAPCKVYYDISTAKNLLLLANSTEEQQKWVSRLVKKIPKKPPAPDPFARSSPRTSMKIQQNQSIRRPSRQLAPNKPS

Usually IC50 stands for the concentration needed to halve the response being measured. Turning to `Cc1cccc(N2CCC(C(=O)Nc3ccc(-c4n[nH]c(=O)c5ccccc45)cc3)C2=O)c1` (centres unmarked) [Example 209, 1-(3-methylphenyl)-2-oxo-N-[4-(4-oxo-3,4-dihydrophthalazin-1-yl)phenyl]pyrrolidine-3-carboxamide], the IC50 at ROCK2 and at ROCK1 was 101 to 1000 nM throughout.

As to `O=C(Cc1ccc(-c2n[nH]c(=O)c3ccccc23)cc1)N1CCN(Cc2ccccc2)CC1` [Example 12, 4-{4-[2-(4-benzylpiperazin-1-yl)-2-oxoethyl]phenyl}-1,2-dihydrophthalazin-1-one], the IC50 against ROCK2 and at ROCK1 was 1000 to 50000 nM in each case.

As to `CC(=O)N1CCC(Cn2nc(C(=O)Nc3ccc(-c4n[nH]c(=O)c5ccccc45)cc3)c3ccccc32)CC1` [Example 343, 1-((1-Acetylpiperidin-4-yl)methyl)-N-(4-(4-oxo-3,4-dihydrophthalazin-1-yl)phenyl)-1H-indazole-3-carboxamide], the IC50 on ROCK2 and on ROCK1 was 0.1 to 100 nM throughout.

Turning to `O=C(Nc1ccc(-c2n[nH]c(=O)c3ccccc23)cc1)C1CC(c2ccccc2)=NO1` (centres unmarked) [Example 196, N-[4-(4-oxo-3,4-dihydrophthalazin-1-yl)phenyl]-3-phenyl-4,5-dihydro-1,2-oxazole-5-carboxamide], the 50% inhibitory concentration (IC50) is 101 to 1000 nM at ROCK2 and 1000 to 50000 nM at ROCK1.

As to `O=C(Oc1ccc(-c2n[nH]c(=O)c3ccccc23)cc1)N1Cc2ccc(F)cc2C1` [Example 71, 4-(4-Oxo-3,4-dihydrophthalazin-1-yl)phenyl 5-fluoroisoindoline-2-carboxylate], the figures for the concentration for half-maximal inhibition (IC50) against ROCK2 and on ROCK1 were 0.1 to 100 nM and 1000 to 50000 nM, respectively.

With `O=C(Nc1ccc(-c2n[nH]c(=O)c3ccccc23)cc1)c1nn(CC2CNC2)c2ccccc12` [Example 338, 1-(Azetidin-3-ylmethyl)-N-(4-(4-oxo-3,4-dihydrophthalazin-1-yl)phenyl)-1H-indazole-3-carboxamide], the figures for the IC50 at ROCK2 and at ROCK1 were 101 to 1000 nM and 0.1 to 100 nM, respectively.

`O=C(Nc1ccc(-c2n[nH]c(=O)c3ccccc23)cc1)c1onc2ccccc12` [Example 93, N-[4-(4-oxo-3,4-dihydrophthalazin-1-yl)phenyl]-2,1-benzoxazole-3-carboxamide]: the concentration for half-maximal inhibition (IC50) at ROCK2 and on ROCK1 was 0.1 to 100 nM in each case.

Regarding `COc1ccccc1N1CCC(C(=O)Nc2ccc(-c3n[nH]c(=O)c4ccccc34)cc2)C1=O` (centres unmarked) [Example 216, 1-(2-methoxyphenyl)-2-oxo-N-[4-(4-oxo-3,4-dihydrophthalazin-1-yl)phenyl]pyrrolidine-3-carboxamide], the IC50 against ROCK2 is 101 to 1000 nM; at ROCK1, 1000 to 50000 nM.

Consider `COc1cccc2cc(C(=O)Nc3ccc(-c4n[nH]c(=O)c5ccccc45)cc3)[nH]c12` [Example 129, 7-methoxy-N-[4-(4-oxo-3,4-dihydrophthalazin-1-yl)phenyl]-1H-indole-2-carboxamide], for which the IC50 against ROCK2 and on ROCK1 was 0.1 to 100 nM each time.

As for `CC(C)(O)Cn1nc(C(=O)Nc2ccc(-c3n[nH]c(=O)c4ccccc34)cc2O)c2ccccc21` [Example 353, 1-(2-Hydroxy-2-methylpropyl)-N-(2-hydroxy-4-(4-oxo-3,4-dihydrophthalazin-1-yl)phenyl)-1H-indazole-3-carboxamide], the figures for the IC50 at ROCK2 and on ROCK1 were 0.1 to 100 nM and 101 to 1000 nM, respectively.

In the case of `COc1ccc2c(-c3ccc(NC(=O)c4cn5ccccc5n4)cc3)n[nH]c(=O)c2c1` [Example 370, N-(4-(6-Methoxy-4-oxo-3,4-dihydrophthalazin-1-yl)phenyl)imidazo[1,2-a]pyridine-2-carboxamide], the half-inhibitory concentration (IC50) against ROCK2 is 0.1 to 100 nM; at ROCK1 it was 1000 to 50000 nM.

Turning to `Cc1ccn2cc(C(=O)Nc3ccc(-c4n[nH]c(=O)c5ccccc45)cc3)nc2c1` [Example 126, 7-methyl-N-[4-(4-oxo-3,4-dihydrophthalazin-1-yl)phenyl]imidazo[1,2-a]pyridine-2-carboxamide], the results for the IC50 against ROCK2 and at ROCK1 were 0.1 to 100 nM and 101 to 1000 nM, respectively.

Turning to `O=C(Nc1ccc(-c2n[nH]c(=O)c3ccccc23)cc1)c1nn(Cc2ccccn2)c2ccccc12` [Example 160, N-[4-(4-oxo-3,4-dihydrophthalazin-1-yl)phenyl]-1-(pyridin-2-ylmethyl)-1H-indazole-3-carboxamide], the half-inhibitory concentration (IC50) against ROCK2 and at ROCK1 was 0.1 to 100 nM each time.

In the case of `O=C(Nc1ccc(-c2n[nH]c(=O)c3ccccc23)cc1)c1ccccc1` [Example 67, N-[4-(4-oxo-3,4-dihydrophthalazin-1-yl)phenyl]benzamide], the figures for the 50% inhibitory concentration (IC50) on ROCK2 and on ROCK1 were 0.1 to 100 nM and 101 to 1000 nM, respectively.

In the case of `COc1ccccc1-n1nnc(C(=O)Nc2ccc(-c3n[nH]c(=O)c4ccccc34)cc2)c1C` [Example 405, 1-(2-Methoxyphenyl)-5-methyl-N-(4-(4-oxo-3,4-dihydrophthalazin-1-yl)phenyl)-1H-1,2,3-triazole-4-carboxamide], the IC50 at ROCK2 and at ROCK1 was 0.1 to 100 nM in each case.

Regarding `CC(O)Cn1nc(C(=O)Nc2ccc(-c3n[nH]c(=O)c4ccccc34)cc2)c2ccccc21` (centres unmarked) [Example 153, 1-(2-hydroxypropyl)-N-[4-(4-oxo-3,4-dihydrophthalazin-1-yl)phenyl]-1H-indazole-3-carboxamide], the IC50 against ROCK2 and on ROCK1 was 0.1 to 100 nM throughout.

On to `O=C(Nc1ccc(-c2n[nH]c(=O)c3ccccc23)cc1)C1CCc2ccccc21` (centres unmarked) [Example 91, N-[4-(4-oxo-3,4-dihydrophthalazin-1-yl)phenyl]-2,3-dihydro-1H-indene-1-carboxamide], for which the half-inhibitory concentration (IC50) lay within 0.1 to 100 nM on ROCK2 and 1000 to 50000 nM on ROCK1.

For the molecule `O=C(Nc1ccc(-c2n[nH]c(=O)c3ccccc23)cc1)c1c[nH]c2ccncc12` [Example 166, N-[4-(4-oxo-3,4-dihydrophthalazin-1-yl)phenyl]-1H-pyrrolo[3,2-c]pyridine-3-carboxamide], the results for the IC50 against ROCK2 and at ROCK1 were 0.1 to 100 nM and 101 to 1000 nM, respectively.

In the case of `Cc1cc(C(=O)Nc2ccc(-c3n[nH]c(=O)c4ccccc34)cc2)nn1Cc1ccccc1` [Example 208, 1-benzyl-5-methyl-N-[4-(4-oxo-3,4-dihydrophthalazin-1-yl)phenyl]-1H-pyrazole-3-carboxamide], the IC50 at ROCK2 and at ROCK1 was 0.1 to 100 nM each time.

For the molecule `O=C(Nc1ccc(-c2n[nH]c(=O)c3ccccc23)cc1)c1nn(CC2CCN(C(=O)OCC(F)(F)F)CC2)c2ccccc12` [Example 351, 2,2,2-Trifluoroethyl 4-[(3-{[4-(4-oxo-3,4-dihydrophthalazin-1-yl)phenyl]carbamoyl}-1H-indazol-1-yl)methyl]piperidine-1-carboxylate], the half-inhibitory concentration (IC50) against ROCK2 and at ROCK1 was 0.1 to 100 nM throughout.

For the molecule `O=C(Nc1ccc(-c2n[nH]c(=O)c3ccccc23)c(Cl)c1)c1cnc2ccccn12` [Example 317, N-[3-chloro-4-(4-oxo-3,4-dihydrophthalazin-1-yl)phenyl]imidazo[1,2-a] pyridine-3-carboxamide], the IC50 against ROCK2 and on ROCK1 was 0.1 to 100 nM throughout.

In the case of `O=C(Cc1ccc(-c2n[nH]c(=O)c3ccccc23)cc1)N1CCc2ccc(O[C@H]3CCOC3)cc21` [Example 275, 4-[4-(2-oxo-2-(6-[(3S)-oxolan-3-yloxy]-2,3-dihydro-1H-indol-1-yl}ethyl)phenyl]-1,2-dihydrophthalazin-1-one], the IC50 at ROCK2 and on ROCK1 was 0.1 to 100 nM throughout.

Consider `COc1ccc2c(c1)CN(C(=O)Oc1ccc(-c3c[nH]c(=O)c4ccc(OC)cc34)cc1)C2` [Example 267, 4-(6-Methoxy-1-oxo-1,2-dihydroisoquinolin-4-yl)phenyl 5-methoxyisoindoline-2-carboxylate], for which the concentration for half-maximal inhibition (IC50) at ROCK2 fell in the range of 0.1 to 100 nM; at ROCK1, 101 to 1000 nM.

Take `Cc1nn(-c2cccc(Cl)c2Cl)nc1C(=O)Nc1ccc(-c2n[nH]c(=O)c3ccccc23)cc1` [Example 238, 2-(2,3-dichlorophenyl)-5-methyl-N-[4-(4-oxo-3,4-dihydrophthalazin-1-yl)phenyl]-2H-1,2,3-triazole-4-carboxamide]: the IC50 on ROCK2 lay in the range of 0.1 to 100 nM; on ROCK1 it was 101 to 1000 nM.

As to `O=C(Nc1ccc(-c2n[nH]c(=O)c3ccccc23)cc1)c1cnn(-c2ccccc2)c1C(F)(F)F` [Example 190, N-[4-(4-oxo-3,4-dihydrophthalazin-1-yl)phenyl]-1-phenyl-5-(trifluoromethyl)-1H-pyrazole-4-carboxamide], the 50% inhibitory concentration (IC50) on ROCK2 and on ROCK1 was 0.1 to 100 nM each time.

Regarding `COCC(O)COc1ccn2ncc(C(=O)Nc3ccc(-c4n[nH]c(=O)c5ccccc45)cc3)c2c1` (centres unmarked) [Example 194, 5-(2-hydroxy-3-methoxypropoxy)-N-[4-(4-oxo-3,4-dihydrophthalazin-1-yl)phenyl]pyrazolo[1,5-a]pyridine-3-carboxamide], the half-maximal inhibitory concentration (IC50) lay in the range of 0.1 to 100 nM on ROCK2 and 101 to 1000 nM on ROCK1.

Take `O=C(Cc1ccc(-c2n[nH]c(=O)c3ccccc23)cc1)Nc1ccc2ncsc2c1` [Example 21]: the results for the half-inhibitory concentration (IC50) at ROCK2 and at ROCK1 were 0.1 to 100 nM and 101 to 1000 nM, respectively.

Take `Cn1c(C(=O)Nc2ccc(-c3c[nH]c(=O)c4ccccc34)cc2)cc2ccccc21` [Example 248, 1-Methyl-N-(4-(1-oxo-1,2-dihydroisoquinolin-4-yl)phenyl)-1H-indole-2-carboxamide]: the values for the IC50 against ROCK2 and on ROCK1 were 0.1 to 100 nM and 101 to 1000 nM, respectively.

With `COc1ccccc1-n1cc(C(=O)Nc2ccc(-c3n[nH]c(=O)c4ccccc34)cc2)nn1` [Example 406, 1-(2-Methoxyphenyl)-N-(4-(4-oxo-3,4-dihydrophthalazin-1-yl)phenyl)-1H-1,2,3-triazole-4-carboxamide], the IC50 against ROCK2 and on ROCK1 was 0.1 to 100 nM throughout.

Take `O=C(COc1ccc2c(c1)N(C(=O)Cc1ccc(-c3n[nH]c(=O)c4ccccc34)cc1)CC2)N1CCOCC1` [Example 297, 4-(4-(2-(6-(2-Morpholino-2-oxoethoxy)indolin-1-yl)-2-oxoethyl)phenyl)phthalazin-1(2H)-one]: the IC50 against ROCK2 and at ROCK1 was 0.1 to 100 nM each time.

Regarding `Cn1cc(C(=O)Nc2ccc(-c3n[nH]c(=O)c4ccccc34)cc2)c2ccccc21` [Example 122, 1-methyl-N-[4-(4-oxo-3,4-dihydrophthalazin-1-yl)phenyl]-1H-indole-3-carboxamide], the 50% inhibitory concentration (IC50) against ROCK2 and on ROCK1 was 0.1 to 100 nM in each case.

(Values after patent publication US9926282B2, “Phthalazinones and isoquinolinones as rock inhibitors” (BRISTOL-MYERS SQUIBB COMPANY, priority 2013, dated 2018).)
